Molecules are shown by their SMILES. pIC50: −log10 of the molar value.

Experimental findings from EP4803520A1, “COMPOUND CONTAINING FUSED BICYCLIC RING, PHARMACEUTICAL COMPOSITION, AND USE THEREOF” (priority 2023, dated 2025) are described below.

Data set [1] deals with MDA-MB-436 BRCA1m human breast cancer nude mouse subcutaneous xenograft tumor model. In words: Pharmacodynamic evaluation in nude mouse subcutaneous xenograft tumor model. It counts as in vivo, nude mice. The note with it: ig 4 mg/kg once daily, after 22 days of administration. The procedure: MDA-MB-436 BRCA1m human breast cancer cells (5 × 10^6 cells/mouse) were inoculated subcutaneously into the right axilla of SPF-grade female nude mice. When the mean tumor volume reached about 150 mm^3, the animals were grouped.
The day of grouping was defined as day 0. The compound of the present application was intragastrically administered once on day 0, and was then administered once daily at a dose of 4 mg/kg with a vehicle of DMSO:PEG400 = 10:90 (v/v). The tumor volume and body weight were measured twice to thrice every week, and the data were recorded. The general behavior of the mice was observed and recorded every day. After the experiment was completed, the tumors were extracted, weighed, and photographed.
The detection parameters and the calculation formulas are as follows: Tumor volume TV (mm^3) = 1/2 × (a×b^2), [formula] where a represents the long diameter of the tumor, and b represents the short diameter of the tumor. Relative tumor volume RTV = TVt /TV0 , [formula] wherein TV0 represents the tumor volume on day 0, and TVt represents the tumor volume at each measurement. Relative tumor proliferation rate T/C (%) = (TRTV/CRTV) × 100%, [formula] where TRTV represents RTV of the treatment group, and CRTV represents RTV of the vehicle control group. […]

Another data set in a line: Mouse pharmacokinetics. Particulars: plasma, ICR mice. The class given is in vivo. The source says: A non-compartmental model was used for fitting to calculate relevant pharmacokinetic parameters, and the results are shown in Table 3. Table 3. Pharmacokinetic results of compounds in mice
Data set [2] has as its target T1, PARP1 (Homo sapiens, UniProt P09874). In words: Assay on PARP1 protein activity (chemiluminescence assay kit).
Protocol: A chemiluminescence assay kit (BPS, Cat. No. 80551) was used. 50 µL of 1× histone was added to a 96-well plate and incubated overnight at 4 °C. Each well was washed 3 times with 200 µL of a PBST buffer (containing 0.05% Tween-20), and the liquid was removed from the plate. 200 µL of blocking buffer 3 was added, and the plate was blocked at room temperature for 60-90 min. The blocking solution was discarded, and the plate was washed 3 times with a PBST buffer, followed by the removal of the liquid from the plate. 25 µL of a master mix (2.5 µL of a 10× PARP buffer + 2.5 µL of a 10× biotinylated substrate assay mix + 5 µL of activated DNA (5×) + 15 µL of water) and 5 µL of a 1× PARP buffer were added to each well. Compounds were sprayed using a nanoliter pipettor in the compound groups. 20 µL of a 1× PARP buffer was added to the blank control group, and 20 µL of PARP 1 enzyme (2.4 ng/mL) was added to the other wells to initiate the reaction. The plate was incubated at room temperature for 1 h. 50 µL of streptavidin-HRP (diluted 1:50 in blocking buffer 3) was added to each well, and the plate was incubated at room temperature for 30 min. The plate was washed three times with PBST, and the liquid was removed from the plate. 50 µL of ELISA ECL substrate A and 50 µL of ELISA ECL substrate B were mixed on ice before use, and 100 µL were added to each well.
A further data set has as its system MDA-MB-436 cells. In words: Assay on inhibitory activity for MDA-MB-436 cell proliferation (CCK-8). Particulars: Homo sapiens, MDA-MB-436; 168 h of incubation, CCK-8, absorbance at 450 nm. The class given is cell-based. The method, then: MDA-MB-436 cells in a good growth state were collected into a centrifuge tube, adjusted to a cell density of 2 × 10^4 cells/mL using a complete medium (DMEM high glucose + 10% FBS + 1× insulin-transferrin-selenium (ITS-G) + 16 µg/mL reduced glutathione), and seeded in a 96-well plate (100 µL/well), and the plate was incubated overnight in a cell incubator. Compounds were added using a pipettor, such that the final concentrations of the compounds were 400 nM-0.02 nM. The wells were set in duplicate, and a control well was set. After 168 h of incubation in the cell incubator, the assay reagent CCK-8 (manufacturer: Dojindo Laboratories, Beijing; 10 µL/well) was added. After 1.5 h of incubation in the cell incubator, the absorbance values were measured at 450 nm on a PerkinElmer Envision microplate reader. […] Inhibitory activity results for DA-MB-436 cell proliferation of compounds

A short description of another data set: Rat pharmacokinetics. It counts as in vivo. Particulars: plasma, SD rats. From the text:
A non-compartmental model was used for fitting to calculate relevant pharmacokinetic parameters, and the results are shown in Table 4. Table 4. Pharmacokinetic results of compounds in rats

The target of the next data set is T2, PARP2 (Homo sapiens, UniProt Q9UGN5).
T2 construct: purchased BPS 80502
In words: PARP2-Tracer activity assay (FP method). The class given is binding. Particulars: PARP2 10 nM, Tracer 2.5 nM. The method, then: (§1) The enzyme inhibition activity of the compounds against PARP1/2-Tracer was tested using the FP method. First, 100 nL of inhibitors with a final concentration of 1% DMSO were transferred to a 384-well reaction plate (Corning 4514) using Echo655. Then, 5 µL of a PARP1/2 (BPS, Cat. No. 80501/80502) enzyme solution was added to each well, followed by centrifugation at 1000 RPM for 1 min at room temperature, and the reaction was allowed to proceed for 10 min. Subsequently, 5 µL of a Tracer (ICE, Cat. No. 001315-009) solution was added to each well, followed by centrifugation at 1000 RPM for 1 min at room temperature, and the reaction was allowed to proceed for 60 min. PARP1/2 and Tracer were prepared in a buffer containing 50 mM Tris (pH 8.0), 10 mM MgCl2, 150 mM NaCl, and 0.001% Triox-100, with final concentrations of 5/10 nM and 2.5 nM, respectively. Finally, the FP signal was read using BMG (PHERAstar FSX), and the IC50 values and nonlinear regression curve fitting were obtained using GraphPad Prism software.

The target in data set [3] is T1, PARP1. The data set can be described thus: PARP1-Tracer activity assay (FP method). It counts as binding. Set-up: purchased BPS 80551. The procedure: as §1
Data set [4] in a line: Experiment on brain distribution in rats. It counts as in vivo, SD rats. Particulars: rat, po.

T1 sequence (P09874 whole entry): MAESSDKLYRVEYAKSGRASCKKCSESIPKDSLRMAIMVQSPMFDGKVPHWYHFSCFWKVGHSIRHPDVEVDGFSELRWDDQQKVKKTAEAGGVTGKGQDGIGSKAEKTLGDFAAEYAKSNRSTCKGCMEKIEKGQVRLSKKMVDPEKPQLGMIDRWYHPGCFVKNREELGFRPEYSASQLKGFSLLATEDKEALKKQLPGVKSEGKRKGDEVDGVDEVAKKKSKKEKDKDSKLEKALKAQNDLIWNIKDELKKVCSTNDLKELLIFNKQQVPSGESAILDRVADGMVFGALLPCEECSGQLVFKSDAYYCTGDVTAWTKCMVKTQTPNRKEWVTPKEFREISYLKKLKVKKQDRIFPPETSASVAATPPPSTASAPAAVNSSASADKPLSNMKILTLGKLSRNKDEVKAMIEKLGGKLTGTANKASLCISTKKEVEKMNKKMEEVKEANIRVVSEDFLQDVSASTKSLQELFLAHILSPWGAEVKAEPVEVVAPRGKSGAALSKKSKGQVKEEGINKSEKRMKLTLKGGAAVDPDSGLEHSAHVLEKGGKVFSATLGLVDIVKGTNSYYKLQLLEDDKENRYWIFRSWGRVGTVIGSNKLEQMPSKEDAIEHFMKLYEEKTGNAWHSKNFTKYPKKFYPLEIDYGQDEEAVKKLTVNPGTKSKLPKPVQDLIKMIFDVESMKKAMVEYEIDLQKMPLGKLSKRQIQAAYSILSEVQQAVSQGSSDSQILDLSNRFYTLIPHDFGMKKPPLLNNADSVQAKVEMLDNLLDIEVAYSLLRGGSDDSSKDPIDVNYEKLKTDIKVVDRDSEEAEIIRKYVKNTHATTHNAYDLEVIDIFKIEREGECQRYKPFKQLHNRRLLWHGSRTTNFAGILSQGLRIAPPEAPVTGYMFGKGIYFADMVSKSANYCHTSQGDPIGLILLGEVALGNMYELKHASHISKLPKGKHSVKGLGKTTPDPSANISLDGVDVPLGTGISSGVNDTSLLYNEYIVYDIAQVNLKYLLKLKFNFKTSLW
T2 sequence (Q9UGN5 whole entry): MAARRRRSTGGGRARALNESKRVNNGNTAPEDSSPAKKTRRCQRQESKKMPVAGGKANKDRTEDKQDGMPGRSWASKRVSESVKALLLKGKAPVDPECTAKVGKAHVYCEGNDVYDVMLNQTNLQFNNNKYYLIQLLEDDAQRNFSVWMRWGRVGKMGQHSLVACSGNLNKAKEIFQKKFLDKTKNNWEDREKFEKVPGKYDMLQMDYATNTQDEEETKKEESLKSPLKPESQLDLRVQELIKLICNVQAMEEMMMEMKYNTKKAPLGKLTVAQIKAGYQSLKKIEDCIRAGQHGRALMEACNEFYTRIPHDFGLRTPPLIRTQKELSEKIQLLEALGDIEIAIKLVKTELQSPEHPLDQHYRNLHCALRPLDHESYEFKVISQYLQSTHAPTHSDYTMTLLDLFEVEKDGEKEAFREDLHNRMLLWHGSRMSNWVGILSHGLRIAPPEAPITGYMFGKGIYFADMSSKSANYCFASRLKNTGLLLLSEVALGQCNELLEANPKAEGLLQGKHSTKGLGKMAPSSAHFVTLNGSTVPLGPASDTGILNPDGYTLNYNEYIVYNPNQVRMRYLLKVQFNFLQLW

As for `CNC(=O)n1cc2c(n1)CN([C@H]1CN(Cc3ccc4cc(C(F)(F)F)c(=O)[nH]c4c3F)[C@H]1C)C2` [Compound 55], in data set [1], the tumor inhibition rate entry is “up to 97%”. For the same compound, the AUC(0-t) (in general, exposure summed from dosing to a finite time, without extrapolation to infinity) in “Mouse pharmacokinetics” (iv 0.1 mg/kg) is 6650 ng·h/mL; in the data set “Mouse pharmacokinetics” (po, ig 0.1 mg/kg), 5490 ng·h/mL; in “Rat pharmacokinetics” (iv 0.1 mg/kg), 326 ng·h/mL; in the data set “Rat pharmacokinetics” (po, ig 0.5 mg/kg), 1710 ng·h/mL. Moreover, the half-life (as a rule, the time in which the quantity being followed falls by half) in the data set “Mouse pharmacokinetics” (iv 0.1 mg/kg) was 13.6 h; in the data set “Rat pharmacokinetics” (iv 0.1 mg/kg), 4.74 h; in “Rat pharmacokinetics” (po, ig 0.5 mg/kg) it was 4.76 h. For the same compound, the Cmax (commonly the highest concentration seen after dosing) was determined as 331 ng/mL in “Mouse pharmacokinetics” (po, ig 0.1 mg/kg) and 208 ng/mL in “Rat pharmacokinetics” (po, ig 0.5 mg/kg). Also, the pIC50 (in general, −log10 of the IC50, conventionally taken in molar units) on PARP1 [2] is over 9.00; in the data set on MDA-MB-436 cells, at least 7.30; on PARP2 it was under 6.30; at PARP1 [3] (FP method, PARP1 5 nM, Tracer 2.5 nM), 8.51. Besides, at PARP1 [3] (ratio of PARP2 IC50 to PARP1 IC50, FP method), the “PARP2/PARP 1 selectivity” value is on record as over 200 fold. Further, the Kp at 8 h in data set [4] (brain, 2 mg/kg, read-out: Brain-to-blood ratio) is 0.082. For the same compound, the AUC – broadly, the area under the concentration-time curve, a measure of exposure – at 8 h in data set [4] (SD rats, ig 2 mg/kg, brain homogenate) stood at 453 ng·h/mL. This compound showed an AUC(0-t) at 8 h in data set [4] (SD rats, ig 2 mg/kg, plasma) of 5530 ng·h/mL.
